From PubChem BioAssay (NCI)
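Grown in 96-well plates, cells were treated for 48 hours with each compound at five concentrations. Insufficient inhibition: endpoint recorded as highest concentration tested. TGI: concentration producing complete growth inhibition.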

Key:
Test in all cases: DTP human tumour cell line panel, 48 h
NCI-H226 lung = test system: NCI-H226 lung
RPMI-8226 leukemia = test system: RPMI-8226 leukemia
U251 CNS = test system: U251 CNS
HL-60(TB) leukemia = test system: HL-60(TB) leukemia
HOP-92 NSCLC = test system: HOP-92 NSCLC
OVCAR-4 ovarian = test system: OVCAR-4 ovarian
OVCAR-3 ovarian = test system: OVCAR-3 ovarian
EKVX NSCLC = test system: EKVX NSCLC
ACHN renal = test system: ACHN renal
CAKI-1 renal = test system: CAKI-1 renal
HOP-62 NSCLC = test system: HOP-62 NSCLC
IGROV1 ovarian = test system: IGROV1 ovarian
HCT-116 colon = test system: HCT-116 colon
DMS 273 small cell lung = test system: DMS 273 small cell lung
OVCAR-5 ovarian = test system: OVCAR-5 ovarian
A549 NSCLC = test system: A549 NSCLC
MOLT-4 leukemia = test system: MOLT-4 leukemia
K-562 leukemia = test system: K-562 leukemia
OVCAR-8 ovarian = test system: OVCAR-8 ovarian
DLD-1 colon = test system: DLD-1 colon
A498 renal = test system: A498 renal
HCT-15 colon = test system: HCT-15 colon
SK-MEL-2 melanoma = test system: SK-MEL-2 melanoma
M19-MEL melanoma = test system: M19-MEL melanoma
SK-OV-3 ovarian = test system: SK-OV-3 ovarian
NCI-H460 lung = test system: NCI-H460 lung
HT29 colon = test system: HT29 colon
SW-620 colon = test system: SW-620 colon
SK-MEL-5 melanoma = test system: SK-MEL-5 melanoma
786-0 renal = test system: 786-0 renal
SNB-75 CNS = test system: SNB-75 CNS
SF-539 CNS = test system: SF-539 CNS
SF-268 CNS = test system: SF-268 CNS
DMS 114 small cell lung = test system: DMS 114 small cell lung
UACC-62 melanoma = test system: UACC-62 melanoma
COLO 205 colon = test system: COLO 205 colon
KM12 colon = test system: KM12 colon
SF-295 CNS = test system: SF-295 CNS
SK-MEL-28 melanoma = test system: SK-MEL-28 melanoma
LOX IMVI melanoma = test system: LOX IMVI melanoma
LXFL 529 NSCLC = test system: LXFL 529 NSCLC
NCI-H23 lung = test system: NCI-H23 lung
SNB-78 CNS = test system: SNB-78 CNS
UACC-257 melanoma = test system: UACC-257 melanoma
UO-31 renal = test system: UO-31 renal
NCI-H522 lung = test system: NCI-H522 lung
CCRF-CEM leukemia = test system: CCRF-CEM leukemia
M14 melanoma = test system: M14 melanoma
TK-10 renal = test system: TK-10 renal
HCC-2998 colon = test system: HCC-2998 colon
RXF 393 renal = test system: RXF 393 renal
SNB-19 CNS = test system: SNB-19 CNS
SR leukemia = test system: SR leukemia
MALME-3M melanoma = test system: MALME-3M melanoma
SN12C renal = test system: SN12C renal

Compound: COc1c(Br)cc(Br)c(OC)c1-c1ccc[nH]1
- TGI (NCI-H226 lung): > 100 µM
- TGI (RPMI-8226 leukemia): > 100 µM
- TGI (U251 CNS): > 100 µM
- TGI (HL-60(TB) leukemia): > 100 µM
- TGI (HOP-92 NSCLC): > 100 µM
- TGI (OVCAR-4 ovarian): > 100 µM
- TGI (OVCAR-3 ovarian): > 100 µM
- TGI (EKVX NSCLC): > 100 µM
- TGI (ACHN renal): > 100 µM
- TGI (CAKI-1 renal): > 100 µM
- TGI (HOP-62 NSCLC): > 100 µM
- TGI (IGROV1 ovarian): > 100 µM
- TGI (HCT-116 colon): > 100 µM
- TGI (DMS 273 small cell lung): > 100 µM
- TGI (OVCAR-5 ovarian): > 100 µM
- TGI (A549 NSCLC): > 100 µM
- TGI (MOLT-4 leukemia): > 100 µM
- TGI (K-562 leukemia): > 100 µM
- TGI (OVCAR-8 ovarian): > 100 µM
- TGI (DLD-1 colon): > 100 µM
- TGI (A498 renal): > 100 µM
- TGI (HCT-15 colon): > 100 µM
- TGI (SK-MEL-2 melanoma): > 100 µM
- TGI (M19-MEL melanoma): > 100 µM
- TGI (SK-OV-3 ovarian): > 100 µM
- TGI (NCI-H460 lung): > 100 µM
- TGI (HT29 colon): > 100 µM
- TGI (SW-620 colon): > 100 µM
- TGI (SK-MEL-5 melanoma): > 100 µM
- TGI (786-0 renal): > 100 µM
- TGI (SNB-75 CNS): > 100 µM
- TGI (SF-539 CNS): > 100 µM
- TGI (SF-268 CNS): > 100 µM
- TGI (DMS 114 small cell lung): > 100 µM
- TGI (UACC-62 melanoma): > 100 µM
- TGI (COLO 205 colon): > 100 µM
- TGI (KM12 colon): > 100 µM
- TGI (SF-295 CNS): > 100 µM
- TGI (SK-MEL-28 melanoma): > 100 µM
- TGI (LOX IMVI melanoma): > 100 µM
- TGI (LXFL 529 NSCLC): > 100 µM
- TGI (NCI-H23 lung): > 100 µM
- TGI (SNB-78 CNS): > 100 µM
- TGI (UACC-257 melanoma): > 100 µM
- TGI (UO-31 renal): > 100 µM
- TGI (NCI-H522 lung): > 100 µM
- TGI (CCRF-CEM leukemia): > 100 µM
- TGI (M14 melanoma): > 100 µM
- TGI (TK-10 renal): > 100 µM

Compound: C=C1C(=O)OC2C1CC[C@H](C)C1(O)C(O)CC(=O)[C@@]21C (stereo partly drawn)
- TGI (NCI-H226 lung): 53.3 µM
- TGI (HCC-2998 colon): 46.6 µM
- TGI (RPMI-8226 leukemia): 94.8 µM
- TGI (U251 CNS): > 100 µM
- TGI (HL-60(TB) leukemia): 55.2 µM
- TGI (HOP-92 NSCLC): 47.7 µM
- TGI (OVCAR-3 ovarian): 47.8 µM
- TGI (EKVX NSCLC): 45.1 µM
- TGI (ACHN renal): 43.4 µM
- TGI (CAKI-1 renal): 72.7 µM
- TGI (IGROV1 ovarian): 73.4 µM
- TGI (HCT-116 colon): 33.9 µM
- TGI (DMS 273 small cell lung): 52.3 µM
- TGI (OVCAR-5 ovarian): 65.4 µM
- TGI (A549 NSCLC): > 100 µM
- TGI (RXF 393 renal): > 10 µM
- TGI (SNB-19 CNS): > 100 µM
- TGI (MOLT-4 leukemia): 42.7 µM
- TGI (K-562 leukemia): 55.6 µM
- TGI (OVCAR-8 ovarian): 42.8 µM
- TGI (DLD-1 colon): 80.7 µM
- TGI (A498 renal): 36 µM
- TGI (SK-MEL-2 melanoma): 72.1 µM
- TGI (M19-MEL melanoma): 26.8 µM
- TGI (SK-OV-3 ovarian): 56 µM
- TGI (SR leukemia): 47.9 µM
- TGI (NCI-H460 lung): > 100 µM
- TGI (HT29 colon): 48.9 µM
- TGI (SW-620 colon): 44 µM
- TGI (SK-MEL-5 melanoma): 31.4 µM
- TGI (786-0 renal): 66.7 µM
- TGI (SNB-75 CNS): 76.2 µM
- TGI (SF-539 CNS): 40.3 µM
- TGI (SF-268 CNS): 54.5 µM
- TGI (DMS 114 small cell lung): 33.9 µM
- TGI (UACC-62 melanoma): 25.3 µM
- TGI (COLO 205 colon): 30.8 µM
- TGI (KM12 colon): 34.1 µM
- TGI (SF-295 CNS): 61.3 µM
- TGI (SK-MEL-28 melanoma): 27 µM
- TGI (MALME-3M melanoma): 39.2 µM
- TGI (LXFL 529 NSCLC): > 10 µM
- TGI (NCI-H23 lung): 40.3 µM
- TGI (SN12C renal): 45.1 µM
- TGI (SNB-78 CNS): 84.2 µM
- TGI (UACC-257 melanoma): 32.6 µM
- TGI (UO-31 renal): 71.2 µM
- TGI (CCRF-CEM leukemia): > 10 µM
- TGI (TK-10 renal): > 10 µM
